Measured values taken from US6328728A, “Composition and method for enhancing electrotransport agent delivery” (Alza Corporation, priority 1997, dated 2001).
Read-outs that look alike come from different tables or passages of the source.

Assay type: in vivo, male hairless guinea pigs
Details: for average plasma calcitonin concentration (given in flux units): second hour/steady state
Protocol: This study was undertaken to assess the effect on the transdermal delivery rate by electrotransport of an agent such as calcitonin (sCT), a protein with an affinity for the surfactant Tween 20 at pH 6.5, by delivering the agent in the presence of Tween 20 from a donor gel.
A customized electrotransport system, and its reservoir matrices and contents were prepared as described below. A low level current of 100 μA cm^-2 was maintained throughout each test by a self contained power module (ALZA Corp., Palo Alto, Calif., Code #84166). The peptide agent salmon calcitonin (sCT, UCB-Bioproducts S.A., Chemin du Foriest, Allend, Belgium) was chosen for delivery by electrotransport. The protein calcitonin has a positive net charge at pH 6.5 and was therefore anodically driven from the positive electrode toward the negative electrode. Three gels were prepared for use with the electrotransport system. The anode gel provided the proper environment for the anodic electrochemical reaction. It was comprised of Bio-Rad resin beads (100-200 mesh, chloride form, Bio-Rad Laboratories, Richmond, Calif.) in 48 mM histidine buffer, pH 6.5, and 0.5% hydroxyethyl cellulose (HEC). The cathode gel provided the proper environment for the cathodic electrochemical reaction and completed the electrical circuit. It was comprised of an L-histidine buffered HEC gel, pH 2.9, and sodium chloride. The donor gel occupied a surface area of 2 cm^2 and was separated from the anode compartment by a 1 Kdalton molecular weight (MW) cut-off membrane (Millipore Corp., Bedford, Mass.). The donor gel was prepared by first mixing 48 mM histidine buffer, pH 6.5, with HEC, vortexing vigorously to completely dissolve the HEC and to ensure homogeneous polymerization of the gel. After a few minutes, either a 10% solution of Tween 20 (Pierce, Rockford, Ill.) or water was added in conjunction with a stock solution of calcitonin and gently mixed into the gel. The amounts of each component were calculated to produce a nominal concentration of 1 mM sCT in a 1% HEC gel of 1 mL volume (with or without Tween 20). The gel was slowly rotated and allowed to equilibrate overnight at 4° C. An aliquot of 275-295 μL of donor gel was weighed and placed in the donor reservoir of the electrotransport system immediately prior to beginning each experiment. The 3 gels were contained in 2 separate structures, with each gel compartment being a punched double-sided adhesive foam ring 0.081 cm (0.032") thick with an outside diameter of 3.2 cm (11/4") and an inside diameter of 1.6 cm (5/8"). The compartment ring containing the cathode gel was open on the skin side. The back side was covered by an electrode sandwich consisting of a 3.2 cm (11/4") diameter release liner cover, a 2.2 cm (13/15") diameter punch of electrical conducting adhesive tape, a 11 cm (41/2") silver wire that was slightly coiled at one end, with the coil placed at the center of the electrode leading out, and a 1.6 cm (5/8") diameter punch of AgCl PIB electrode film. The donor gel compartment was also open on the skin side, but the back side was covered by a 2.2 cm (13/15") diameter punch of a 1,000 Dalton MW cut-off membrane. The anode compartment was then stacked on top of the donor compartment and covered with an electrode sandwich identical to the cathode, except that the AgCl PIB electrode film was replaced with a 0.025 mm thick silver (Ag) foil (Johnson Mathey Catalog Co., Ward Hill, Mass.). Both the cathode and the donor compartments also included adhesive washers (In Vivo Metric, Healdsberg, Calif.) with an outside diameter of 3.2 cm (11/4") and an inside diameter of 1.6 cm (5/8") between the skin and the bottom of the compartment to improve skin adhesion. All components of the system were punched out in advance and assembled on the day of the experiment. […]

Salmon Calcitonin [reference compound]
time to approach steady state calcitonin levels (active current groups (1) and (2)): By the second hour
average plasma calcitonin concentration (given in flux units) (active electrotransport 100 μA cm^-2, 1 mM sCT gel pH 6.5, with Tween 20 (group 1)): 5.4 μg sCT cm^-2 h^-1
average plasma calcitonin concentration (given in flux units) (active electrotransport 100 μA cm^-2, 1 mM sCT gel pH 6.5, without Tween 20 (group 2)): 1.2 μg sCT cm^-2 h^-1
calcitonin plasma concentration, time course (active electrotransport groups (1) and (2), first hour): increased rapidly
average plasma calcitonin concentration with Tween 20 relative to without Tween 20 (active electrotransport, group 1 vs. group 2, second hour): 3 fold
calcitonin plasma profiles, group (1) with Tween 20 vs group (2) without (statistical comparison) (active electrotransport, p<0.05, ANOVA): significantly different from one another
calcitonin plasma levels, passive systems (passive delivery (control group 3, with and without Tween 20), first 4 hrs.): continued to lack significant calcitonin plasma levels
calcitonin plasma levels, passive systems (passive delivery (no current), first hour): low and remained at or slightly above the limit of detection
